{"source": "patent US8304393B2", "about": "“Epithelial cell growth promoter” (Patent Technology Development Inc., priority 2004, dated 2012)", "test_system": "murine HBKs (hair bulb keratinocytes)", "assay": "HBK growth test (Example 5, AlamarBlue)", "format": "cell-based, mouse", "details": "for cell growth effect as compared with that on the control: 4 days culture; for concentration at which significant difference from control could be noted: Dunnett's multiple comparison test, p<0.05", "description": "The epithelial cell growth promoters of Examples 1 and 2 and Reference Examples 1 and 2 were subjected to a cell growth test for murine HBKs, respectively. The following culture medium and test medium were used.\nDMEM (product code “D-5523”, a product by Sigma)\nFBS (product code “10100756”, a product by Cansera International Inc.)\n• 10% Penicillin/streptomycin (product code “15140-122”, a product by GIBCO) • 1% (b) Test medium MCDB153 (product code “M7403”, a product by Sigma) Insulin (product code “16634”, bovine, a product by Sigma) • 5 μg/ml Apo-transferrin (product code “T1147”, human, a product by Sigma) • 10 μg/ml EGF (product code “01-101”, murine, a product by Upstate Biotechnology Inc.) • […] BPE (product code “13028-014”, bovine pituitary extract, a product by GIBCO) • 35 μg/ml Water-soluble hydrocortisone (product code “174-00”, a product by NACALAI TESQUE INC.) • 0.5 μg/ml Ethanolamine (product code “012-12455”, a product of Wako Pure Chemical Industries Ltd.) • 100 μM o-phosphorylethanolamine (product code “P0503”, a product by Sigma) • 100 μM\nThe skin of a 5 day-old mouse was cut with a scalpel into strips of approximately 2-mm-wide skin slices, which were in turn immersed in a solution prepared by dissolving dispase (lot No. 0101, a product by GODO SHUSEI CO.) at a proportion of 500 U/ml in DMEM (product code “D-5523”, a product by Sigma) containing FBS (product code “10100756”, a product by Cansera International Inc.) in a concentration of 5%, and then kept standing at 4° C. for 16 hours. Subsequently, the epidermis was ablated and removed with tweezers from the skin slices to collect only dermis tissues. The thus obtained dermis tissues were immersed in PBS (−) (product code “P-4417”, a product by Sigma) and cut into strips with opthalmological scissors. The thus obtained strips were immersed in a solution prepared by dissolving collagenase (lot No. 001014W, a product by Nitta Gelatin Inc.) in a concentration of 0.2% in DMEM containing FBS in a concentration of 5%, and then digested at 37° C. for 1 hour. After centrifugation at 1000 rpm for 5 minutes, the supernatant was removed, and the residue was supplemented with PBS (−) and gently pipetted to prepare a dermis suspension.\nFor separating dermal fibroblasts and hair bulbs, the dermis suspension was kept standing for 15 minutes to precipitate only the hair bulbs. The hair bulbs obtained by repeating the “standing to precipitation” procedure three times were immersed in a solution prepared by dissolving, in 2.65 mM EDTA aqueous solution, trypsin in a concentration of 0.25%, and then treated at 37° C. for 5 minutes to prepare a dispersion solution of HBKs.\nNext, this dispersion solution was centrifuged at 1000 rpm for 5 minutes. After this centrifugation, the supernatant was removed. The thus obtained HBKs were dispersed in a culture medium, then inoculated into a collagen-coated 96-well microplate, and cultured at 37° C. in an atmosphere containing 5% CO2.\nThe isoleucyl-glycyl-serine (hereinafter, abbreviated to IGS), prolyl-isoleucyl-glycine (hereinafter, abbreviated to PIG), prolyl-isoleucyl-glycyl-serine (SEQ ID NO: 2) (hereinafter, abbreviated to PIGS), and glycyl-prolyl-isoleucyl-glycine (SEQ ID NO: 1) (hereinafter, abbreviated to GPIG) obtained in Examples 1 and 2 and Reference Examples 1 and 2 were separately dissolved in a test media to prepare 6 types of sample solutions each in a concentration of 0.3 μM, 1 μM, 3 μM, 10 μM, 30 μM, and 100 μM. Only a test medium was used as a control.\nAfter 24 hours from the inoculation of the cells, the culture solutions were removed, and the cultured cells were washed with an MCDB153 solution. Each of the above-mentioned sample solutions was added to the cultured cell at 100 μl/well and cultured at 37° C. in an atmosphere containing 5% CO2. […]", "data": [{"compound": "CC[C@H](C)[C@H](NC(=O)[C@@H]1CCCN1C(=O)CN)C(=O)NCC(=O)O", "note": "(racemic) [GPIG, glycyl-prolyl-isoleucyl-glycine]", "values": [{"measurement": "cell growth effect as compared with that on the control", "setting": "0.3 μM", "result": 105, "unit": "%"}, {"measurement": "cell growth effect as compared with that on the control", "setting": "1 μM", "result": 108, "unit": "%"}, {"measurement": "cell growth effect as compared with that on the control", "setting": "3 μM", "result": 118, "unit": "%"}, {"measurement": "cell growth effect as compared with that on the control", "setting": "10 μM", "result": 133, "unit": "%"}, {"measurement": "cell growth effect as compared with that on the control", "setting": "30 μM", "result": 134, "unit": "%"}, {"measurement": "cell growth effect as compared with that on the control", "setting": "100 μM", "result": 138, "unit": "%"}, {"measurement": "concentration at which significant difference from control could be noted", "result": "≥ 0.3", "unit": "µM"}]}, {"compound": "CC[C@H](C)[C@H](NC(=O)[C@@H]1CCCN1)C(=O)NCC(=O)N[C@@H](CO)C(=O)O", "note": "(racemic) [PIGS, prolyl-isoleucyl-glycyl-serine]", "values": [{"measurement": "cell growth effect as compared with that on the control", "setting": "0.3 μM", "result": 104, "unit": "%"}, {"measurement": "cell growth effect as compared with that on the control", "setting": "1 μM", "result": 103, "unit": "%"}, {"measurement": "cell growth effect as compared with that on the control", "setting": "3 μM", "result": 108, "unit": "%"}, {"measurement": "cell growth effect as compared with that on the control", "setting": "10 μM", "result": 110, "unit": "%"}, {"measurement": "cell growth effect as compared with that on the control", "setting": "30 μM", "result": 127, "unit": "%"}, {"measurement": "cell growth effect as compared with that on the control", "setting": "100 μM", "result": 133, "unit": "%"}, {"measurement": "concentration at which significant difference from control could be noted", "result": "≥ 3", "unit": "µM"}]}, {"compound": "CC[C@H](C)[C@H](NC(=O)[C@@H]1CCCN1)C(=O)NCC(=O)O", "note": "(racemic) [PIG, prolyl-isoleucyl-glycine]", "values": [{"measurement": "cell growth effect as compared with that on the control", "setting": "0.3 μM", "result": 101, "unit": "%"}, {"measurement": "cell growth effect as compared with that on the control", "setting": "1 μM", "result": 103, "unit": "%"}, {"measurement": "cell growth effect as compared with that on the control", "setting": "3 μM", "result": 113, "unit": "%"}, {"measurement": "cell growth effect as compared with that on the control", "setting": "10 μM", "result": 132, "unit": "%"}, {"measurement": "cell growth effect as compared with that on the control", "setting": "30 μM", "result": 131, "unit": "%"}, {"measurement": "cell growth effect as compared with that on the control", "setting": "100 μM", "result": 134, "unit": "%"}, {"measurement": "concentration at which significant difference from control could be noted", "result": "≥ 1", "unit": "µM"}]}, {"compound": "CC[C@H](C)[C@H](N)C(=O)NCC(=O)N[C@@H](CO)C(=O)O", "note": "(racemic) [IGS, isoleucyl-glycyl-serine]", "values": [{"measurement": "cell growth effect as compared with that on the control", "setting": "0.3 μM", "result": 98, "unit": "%"}, {"measurement": "cell growth effect as compared with that on the control", "setting": "1 μM", "result": 103, "unit": "%"}, {"measurement": "cell growth effect as compared with that on the control", "setting": "3 μM", "result": 106, "unit": "%"}, {"measurement": "cell growth effect as compared with that on the control", "setting": "10 μM", "result": 124, "unit": "%"}, {"measurement": "cell growth effect as compared with that on the control", "setting": "30 μM", "result": 134, "unit": "%"}, {"measurement": "cell growth effect as compared with that on the control", "setting": "100 μM", "result": 133, "unit": "%"}, {"measurement": "concentration at which significant difference from control could be noted", "result": "≥ 10", "unit": "µM"}]}]}
